PubChem BioAssay (NCI)
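Exposure lasted 48 hours, with cells grown in 96-well plates and compounds tested at five concentrations. GI50 = concentration required for 50% inhibition of growth. TGI denotes the concentration required for complete inhibition of growth.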

What was measured:
Test in all cases: NCI anticancer screen, dose series, 48 h
IGROV1 ovarian = tested on: IGROV1 ovarian
SN12C renal = tested on: SN12C renal
MDA-MB-435 = tested on: MDA-MB-435
MALME-3M melanoma = tested on: MALME-3M melanoma
HL-60(TB) leukemia = tested on: HL-60(TB) leukemia
CAKI-1 renal = tested on: CAKI-1 renal
NCI/ADR-RES ovarian = tested on: NCI/ADR-RES ovarian
SF-295 CNS = tested on: SF-295 CNS
HS 578T breast = tested on: HS 578T breast
DU-145 prostate = tested on: DU-145 prostate
HCT-15 colon = tested on: HCT-15 colon
SW-620 colon = tested on: SW-620 colon
SR leukemia = tested on: SR leukemia
SK-MEL-2 melanoma = tested on: SK-MEL-2 melanoma
UO-31 renal = tested on: UO-31 renal
UACC-257 melanoma = tested on: UACC-257 melanoma
SNB-75 CNS = tested on: SNB-75 CNS
MDA-MB-231 breast = tested on: MDA-MB-231 breast
MDA-MB-468 breast = tested on: MDA-MB-468 breast
NCI-H460 lung = tested on: NCI-H460 lung
NCI-H226 lung = tested on: NCI-H226 lung
HOP-92 NSCLC = tested on: HOP-92 NSCLC
MOLT-4 leukemia = tested on: MOLT-4 leukemia
UACC-62 melanoma = tested on: UACC-62 melanoma
RXF 393 renal = tested on: RXF 393 renal
A498 renal = tested on: A498 renal
OVCAR-3 ovarian = tested on: OVCAR-3 ovarian
CCRF-CEM leukemia = tested on: CCRF-CEM leukemia
SK-MEL-5 melanoma = tested on: SK-MEL-5 melanoma

SMILES: Cc1ccc(C(C)C)cc1Oc1cccc(-c2c(-c3ccc(C(F)(F)F)cc3)ncn2C2CCNCC2)n1
- GI50 (IGROV1 ovarian): 1340 nM
- TGI (IGROV1 ovarian): 2670 nM
- GI50 (SN12C renal): 1350 nM
- TGI (SN12C renal): 2660 nM
- GI50 (MDA-MB-435): 1700 nM
- TGI (MDA-MB-435): 3190 nM
- GI50 (MALME-3M melanoma): 1430 nM
- TGI (MALME-3M melanoma): 2770 nM
- GI50 (HL-60(TB) leukemia): 1050 nM
- TGI (HL-60(TB) leukemia): 3360 nM
- GI50 (CAKI-1 renal): 1420 nM
- TGI (CAKI-1 renal): 2850 nM
- GI50 (NCI/ADR-RES ovarian): 1600 nM
- TGI (NCI/ADR-RES ovarian): 3190 nM
- GI50 (SF-295 CNS): 1530 nM
- TGI (SF-295 CNS): 2970 nM
- GI50 (HS 578T breast): 1680 nM
- TGI (HS 578T breast): 3670 nM
- GI50 (DU-145 prostate): 1680 nM
- TGI (DU-145 prostate): 3100 nM
- GI50 (HCT-15 colon): 1360 nM
- TGI (HCT-15 colon): 2690 nM
- GI50 (SW-620 colon): 1470 nM
- TGI (SW-620 colon): 2910 nM
- GI50 (SR leukemia): 1610 nM
- TGI (SR leukemia): 4130 nM
- GI50 (SK-MEL-2 melanoma): 1820 nM
- TGI (SK-MEL-2 melanoma): 3470 nM
- GI50 (UO-31 renal): 1330 nM
- TGI (UO-31 renal): 2630 nM
- GI50 (UACC-257 melanoma): 1750 nM
- TGI (UACC-257 melanoma): 3400 nM
- GI50 (SNB-75 CNS): 1300 nM
- TGI (SNB-75 CNS): 2680 nM
- GI50 (MDA-MB-231 breast): 1480 nM
- TGI (MDA-MB-231 breast): 2810 nM
- GI50 (MDA-MB-468 breast): 1330 nM
- TGI (MDA-MB-468 breast): 2730 nM
- GI50 (NCI-H460 lung): 1630 nM
- TGI (NCI-H460 lung): 3080 nM
- GI50 (NCI-H226 lung): 1480 nM
- TGI (NCI-H226 lung): 3010 nM
- GI50 (HOP-92 NSCLC): 1350 nM
- TGI (HOP-92 NSCLC): 2840 nM
- GI50 (MOLT-4 leukemia): 1690 nM
- TGI (MOLT-4 leukemia): 4440 nM
- GI50 (UACC-62 melanoma): 1440 nM
- TGI (UACC-62 melanoma): 2760 nM
- GI50 (RXF 393 renal): 1340 nM
- TGI (RXF 393 renal): 2720 nM
- GI50 (A498 renal): 1570 nM
- TGI (A498 renal): 3050 nM
- GI50 (OVCAR-3 ovarian): 1800 nM
- TGI (OVCAR-3 ovarian): 3280 nM
- GI50 (CCRF-CEM leukemia): 2260 nM
- TGI (CCRF-CEM leukemia): 27900 nM
- GI50 (SK-MEL-5 melanoma): 1610 nM
- TGI (SK-MEL-5 melanoma): 2990 nM
